Experimental data published in ChEMBL document CHEMBL6109151, “Discovery of a Novel Dihydroisoquinolinone Derivative as a Potent CDK9 Inhibitor Capable of Overcoming L156F Mutant for the Treatment of Hematologic Malignancies” (J Med Chem, 2025).

Key:
Settings in all cases: male, Sprague-Dawley, rat, iv, 1 mg/kg
in vivo [1] = assay: in vivo
in vivo [2] = assay: in vivo; remark: listed apart in the source
in vivo [3] = assay: in vivo; remark: listed apart in the source
in vivo [4] = assay: in vivo; remark: listed apart in the source

- AUC(0-t) at 8 h (in vivo [1]): 1190 ng·h/mL
- half-life at 8 h (in vivo [2]): 1.1 h
- clearance at 8 h (in vivo [3]): 14 mL/min/kg
- Vd at 8 h (in vivo [4]): 1.11 L/kg
Compound: COc1cc(F)ccc1-c1cc(Nc2cc(CS(C)(=N)=O)ccn2)ncc1F (centres undefined) [ENITOCICLIB]
